Test results reported in ChEMBL document CHEMBL5212743, “Selectivity Literature for EUbOPEN Chemogenomics Library wave 3” (2023).
pKd, pKi: −log10 of the molar value.

How the values were obtained:
[1] = biological target: T1, Adenosine receptor A1 (Homo sapiens) (UniProt P30542); conditions: at 10 µM
T1 sequence (whole entry): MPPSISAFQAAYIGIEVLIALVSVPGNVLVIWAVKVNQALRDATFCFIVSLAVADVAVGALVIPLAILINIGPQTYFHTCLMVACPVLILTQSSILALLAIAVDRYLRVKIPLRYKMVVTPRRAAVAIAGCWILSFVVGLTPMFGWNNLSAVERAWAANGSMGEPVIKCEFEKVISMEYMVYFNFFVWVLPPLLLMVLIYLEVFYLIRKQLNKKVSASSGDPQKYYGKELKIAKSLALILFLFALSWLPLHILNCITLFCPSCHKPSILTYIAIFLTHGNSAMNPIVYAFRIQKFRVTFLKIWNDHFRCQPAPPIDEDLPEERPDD

[2] = biological target: T2, Bromodomain-containing protein 4 (Homo sapiens, UniProt O60885); experiment: Selectivity interaction (ITC) EUB0000205c BRD4
[3] = biological target: Kappa-type opioid receptor (Homo sapiens, UniProt P41145); conditions: at 10 µM
[4] = biological target: Sodium-dependent noradrenaline transporter (Homo sapiens, UniProt P23975); conditions: at 10 µM
[5] = biological target: Dual specificity tyrosine-phosphorylation-regulated kinase 1A (Homo sapiens, UniProt Q13627); experiment: Selectivity interaction (NanoBRET assay (HEK293T cells)) EUB0000009b DYRK1A
[6] = biological target: Dual specificity tyrosine-phosphorylation-regulated kinase 1B (Homo sapiens, UniProt Q9Y463); experiment: Selectivity interaction (NanoBRET assay (HEK293T cells)) EUB0000009b DYRK1B
[7] = biological target: Dual specificity tyrosine-phosphorylation-regulated kinase 2 (Homo sapiens, UniProt Q92630); experiment: Selectivity interaction (NanoBRET assay (HEK293T cells)) EUB0000009b DYRK2
[8] = biological target: Dual specificity protein kinase CLK2 (Homo sapiens, UniProt P49760); experiment: Selectivity interaction (NanoBRET assay (HEK293T cells)) EUB0000009b CLK2
[9] = biological target: High affinity nerve growth factor receptor (Homo sapiens, UniProt P04629); experiment: Selectivity interaction (Z’-LYTE assay (SelectScreen Invitrogen)) EUB0000690a NTRK1
[10] = biological target: Epidermal growth factor receptor (Homo sapiens, UniProt P00533, L858R); experiment: (§1) Selectivity interaction (Z’-LYTE assay (SelectScreen Invitrogen)) EUB0000690a EGFR
[11] = biological target: Epidermal growth factor receptor (Homo sapiens, UniProt P00533, T790M); experiment: as §1
[12] = biological target: Tyrosine-protein kinase JAK2 (Homo sapiens, UniProt O60674); experiment: Selectivity interaction (Z’-LYTE assay (SelectScreen Invitrogen)) EUB0000690a JAK2
[13] = biological target: Tyrosine-protein kinase FRK (Homo sapiens, UniProt P42685); experiment: Selectivity interaction (Z’-LYTE assay (SelectScreen Invitrogen)) EUB0000690a FRK
[14] = biological target: Leukocyte tyrosine kinase receptor (Homo sapiens, UniProt P29376); experiment: Selectivity interaction (Z’-LYTE assay (SelectScreen Invitrogen)) EUB0000690a LTK
[15] = biological target: Protein-tyrosine kinase 2-beta (Homo sapiens, UniProt Q14289); experiment: Selectivity interaction (Z’-LYTE assay (SelectScreen Invitrogen)) EUB0000690a PTK2B
Focal adhesion kinase 1 = Focal adhesion kinase 1 (Homo sapiens, UniProt Q05397); experiment: Selectivity interaction (Z’-LYTE assay (SelectScreen Invitrogen)) EUB0000690a PTK2
Activated CDC42 kinase 1 = Activated CDC42 kinase 1 (Homo sapiens, UniProt Q07912); experiment: Selectivity interaction (Z’-LYTE assay (SelectScreen Invitrogen)) EUB0000690a TNK2
[16] = biological target: Tyrosine-protein kinase Fes/Fps (Homo sapiens, UniProt P07332); experiment: Selectivity interaction (Z’-LYTE assay (SelectScreen Invitrogen)) EUB0000690a FES
[17] = biological target: NT-3 growth factor receptor (Homo sapiens, UniProt Q16288); experiment: Selectivity interaction (Z’-LYTE assay (SelectScreen Invitrogen)) EUB0000690a NTRK3
[18] = biological target: Tyrosine-protein kinase Fer (Homo sapiens, UniProt P16591); experiment: Selectivity interaction (Z’-LYTE assay (SelectScreen Invitrogen)) EUB0000690a FER
[19] = biological target: T2, Bromodomain-containing protein 4; experiment: (§2) Selectivity interaction (Bromodomain panel (DSF assay)) EUB0000195c BRD4
CREB-binding protein [20] = biological target: T3, CREB-binding protein (Homo sapiens, UniProt Q92793)
[21] = biological target: Bromodomain-containing protein 2 (Homo sapiens) (UniProt P25440); experiment: Selectivity interaction (Bromodomain panel (DSF assay)) EUB0000195c BRD2
[22] = biological target: T4, Muscarinic acetylcholine receptor M2 (Homo sapiens) (UniProt P08172); experiment: Selectivity interaction (CEREP panel (nuclear receptors, ion channels, and […] other enzymes, including 10 kinases, 9 proteases, and 5 phosphodiesterases)) EUB0000195c CHRM2; conditions: at 10 µM
T4 sequence (whole entry): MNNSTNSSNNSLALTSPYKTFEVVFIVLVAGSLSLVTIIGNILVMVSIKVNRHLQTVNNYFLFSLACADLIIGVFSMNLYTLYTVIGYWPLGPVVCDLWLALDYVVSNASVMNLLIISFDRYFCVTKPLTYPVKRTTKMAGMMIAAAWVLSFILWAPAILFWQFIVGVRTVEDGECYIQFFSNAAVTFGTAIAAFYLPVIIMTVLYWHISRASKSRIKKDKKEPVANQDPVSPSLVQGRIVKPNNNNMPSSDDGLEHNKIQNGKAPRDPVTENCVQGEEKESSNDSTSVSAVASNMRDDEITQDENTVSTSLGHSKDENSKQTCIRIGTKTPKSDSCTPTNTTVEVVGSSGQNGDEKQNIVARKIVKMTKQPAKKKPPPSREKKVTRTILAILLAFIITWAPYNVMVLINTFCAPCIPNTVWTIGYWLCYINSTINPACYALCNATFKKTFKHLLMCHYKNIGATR

[23] = biological target: Bromodomain-containing protein 3 (Homo sapiens) (UniProt Q15059); experiment: Selectivity interaction (Bromodomain panel (DSF assay)) EUB0000195c BRD3
[24] = biological target: T5, Alpha-1A adrenergic receptor (Homo sapiens) (UniProt P35348); experiment: Selectivity interaction (CEREP panel (nuclear receptors, ion channels, and […] other enzymes, including 10 kinases, 9 proteases, and 5 phosphodiesterases)) EUB0000195c ADRA1A; conditions: at 10 µM
T5 sequence (whole entry): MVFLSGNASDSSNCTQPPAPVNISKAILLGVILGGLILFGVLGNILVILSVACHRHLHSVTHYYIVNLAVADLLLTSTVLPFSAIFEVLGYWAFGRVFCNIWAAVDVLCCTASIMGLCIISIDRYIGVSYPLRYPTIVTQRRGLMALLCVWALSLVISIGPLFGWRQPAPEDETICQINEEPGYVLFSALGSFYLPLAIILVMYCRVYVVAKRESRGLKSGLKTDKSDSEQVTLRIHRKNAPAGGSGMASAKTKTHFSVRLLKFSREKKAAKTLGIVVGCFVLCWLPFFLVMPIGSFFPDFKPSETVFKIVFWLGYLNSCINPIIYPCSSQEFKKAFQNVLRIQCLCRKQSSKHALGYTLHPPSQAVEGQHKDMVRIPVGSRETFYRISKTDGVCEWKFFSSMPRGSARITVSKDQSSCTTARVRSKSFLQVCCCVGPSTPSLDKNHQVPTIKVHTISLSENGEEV

[25] = biological target: T2, Bromodomain-containing protein 4; experiment: as §2; remark: listed apart in the source
CREB-binding protein [26] = biological target: T3, CREB-binding protein; remark: listed apart in the source
[27] = biological target: T2, Bromodomain-containing protein 4; experiment: Selectivity interaction (ITC) EUB0000195c BRD4
[28] = biological target: Histone acetyltransferase p300 (Homo sapiens) (UniProt Q09472); experiment: Selectivity interaction (DSF assay) EUB0000195c EP300
[29] = biological target: Sigma intracellular receptor 2 (Homo sapiens, UniProt Q5BJF2); experiment: Selectivity interaction (GPCR panel (PDSP screen)) EUB0000103c TMEM97
[30] = biological target: Histone-arginine methyltransferase CARM1 (Homo sapiens) (UniProt Q86X55)
[31] = biological target: Sigma non-opioid intracellular receptor 1 (Homo sapiens, UniProt Q99720); experiment: Selectivity interaction (GPCR panel (PDSP screen)) EUB0000103c SIGMAR1
[32] = biological target: Protein arginine N-methyltransferase 6 (Homo sapiens, UniProt Q96LA8)
[33] = biological target: RNA 5'-monophosphate methyltransferase (Homo sapiens) (UniProt Q7Z5W3); conditions: at 50 µM
[34] = biological target: Sodium channel protein type 2 subunit alpha (Homo sapiens, UniProt Q99250); conditions: at 10 µM
[35] = biological target: BMP-2-inducible protein kinase (Homo sapiens) (UniProt Q9NSY1); experiment: Selectivity interaction (KinomeScan (DiscoverX)) EUB0000717a BMP2K; conditions: at 1 µM
[36] = biological target: Sodium-dependent dopamine transporter (Homo sapiens, UniProt Q01959); experiment: Selectivity interaction (GPCR panel (PDSP screen)) EUB0000717a SLC6A3
[37] = biological target: T6, Cyclin-G-associated kinase (Homo sapiens) (UniProt O14976); experiment: Selectivity interaction (KinomeScan (DiscoverX)) EUB0000717a GAK; conditions: at 1 µM
T6 sequence (whole entry): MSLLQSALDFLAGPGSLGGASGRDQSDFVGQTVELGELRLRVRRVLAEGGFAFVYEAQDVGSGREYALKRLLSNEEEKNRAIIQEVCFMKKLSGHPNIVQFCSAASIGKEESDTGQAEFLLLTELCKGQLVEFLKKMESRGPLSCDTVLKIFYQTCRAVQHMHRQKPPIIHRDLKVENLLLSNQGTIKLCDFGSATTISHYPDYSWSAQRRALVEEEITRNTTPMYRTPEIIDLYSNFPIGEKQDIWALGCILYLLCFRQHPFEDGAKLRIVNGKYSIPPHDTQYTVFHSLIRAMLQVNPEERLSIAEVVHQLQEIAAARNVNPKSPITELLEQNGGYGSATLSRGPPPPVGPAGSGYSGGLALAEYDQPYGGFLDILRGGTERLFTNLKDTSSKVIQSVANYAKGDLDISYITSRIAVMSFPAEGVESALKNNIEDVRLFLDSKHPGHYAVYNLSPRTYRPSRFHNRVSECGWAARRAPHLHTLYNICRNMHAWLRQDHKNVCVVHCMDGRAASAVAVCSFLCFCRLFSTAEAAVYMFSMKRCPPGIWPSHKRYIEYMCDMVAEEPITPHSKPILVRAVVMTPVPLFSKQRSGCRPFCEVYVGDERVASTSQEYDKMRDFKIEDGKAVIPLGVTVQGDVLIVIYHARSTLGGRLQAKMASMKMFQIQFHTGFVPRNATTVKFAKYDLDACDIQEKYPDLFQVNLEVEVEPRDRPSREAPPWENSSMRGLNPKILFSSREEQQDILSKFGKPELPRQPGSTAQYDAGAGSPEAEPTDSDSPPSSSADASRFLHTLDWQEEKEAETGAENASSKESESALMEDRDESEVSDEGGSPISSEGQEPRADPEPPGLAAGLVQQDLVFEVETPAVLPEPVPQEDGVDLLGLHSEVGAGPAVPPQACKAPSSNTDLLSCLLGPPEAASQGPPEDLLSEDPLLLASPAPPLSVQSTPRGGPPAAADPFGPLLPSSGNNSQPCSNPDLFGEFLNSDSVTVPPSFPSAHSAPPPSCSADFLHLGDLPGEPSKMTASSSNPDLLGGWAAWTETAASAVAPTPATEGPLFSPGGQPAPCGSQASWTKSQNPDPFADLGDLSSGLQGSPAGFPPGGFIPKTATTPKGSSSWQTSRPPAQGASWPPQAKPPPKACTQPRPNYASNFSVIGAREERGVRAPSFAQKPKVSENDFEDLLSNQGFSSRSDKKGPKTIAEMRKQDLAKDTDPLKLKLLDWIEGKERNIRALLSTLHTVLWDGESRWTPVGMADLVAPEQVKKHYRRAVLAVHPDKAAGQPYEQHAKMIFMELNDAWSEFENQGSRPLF

Chain of Protein arginine N-methyltransferase 6 (Q96LA8 whole entry, looked up): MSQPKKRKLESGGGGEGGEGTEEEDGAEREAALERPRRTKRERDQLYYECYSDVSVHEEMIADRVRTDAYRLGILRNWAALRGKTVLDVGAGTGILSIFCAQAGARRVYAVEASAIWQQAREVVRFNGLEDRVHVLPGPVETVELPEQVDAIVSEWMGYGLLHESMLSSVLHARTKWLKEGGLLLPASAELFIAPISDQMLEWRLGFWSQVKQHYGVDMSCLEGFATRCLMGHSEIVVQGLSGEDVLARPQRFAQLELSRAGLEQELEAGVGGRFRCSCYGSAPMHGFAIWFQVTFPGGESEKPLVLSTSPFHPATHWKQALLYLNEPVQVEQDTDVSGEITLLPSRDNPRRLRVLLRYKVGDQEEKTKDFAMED
Chain of Epidermal growth factor receptor (Homo sapiens, UniProt P00533, T790M) (P00533 25-1210 T790M limits assumed): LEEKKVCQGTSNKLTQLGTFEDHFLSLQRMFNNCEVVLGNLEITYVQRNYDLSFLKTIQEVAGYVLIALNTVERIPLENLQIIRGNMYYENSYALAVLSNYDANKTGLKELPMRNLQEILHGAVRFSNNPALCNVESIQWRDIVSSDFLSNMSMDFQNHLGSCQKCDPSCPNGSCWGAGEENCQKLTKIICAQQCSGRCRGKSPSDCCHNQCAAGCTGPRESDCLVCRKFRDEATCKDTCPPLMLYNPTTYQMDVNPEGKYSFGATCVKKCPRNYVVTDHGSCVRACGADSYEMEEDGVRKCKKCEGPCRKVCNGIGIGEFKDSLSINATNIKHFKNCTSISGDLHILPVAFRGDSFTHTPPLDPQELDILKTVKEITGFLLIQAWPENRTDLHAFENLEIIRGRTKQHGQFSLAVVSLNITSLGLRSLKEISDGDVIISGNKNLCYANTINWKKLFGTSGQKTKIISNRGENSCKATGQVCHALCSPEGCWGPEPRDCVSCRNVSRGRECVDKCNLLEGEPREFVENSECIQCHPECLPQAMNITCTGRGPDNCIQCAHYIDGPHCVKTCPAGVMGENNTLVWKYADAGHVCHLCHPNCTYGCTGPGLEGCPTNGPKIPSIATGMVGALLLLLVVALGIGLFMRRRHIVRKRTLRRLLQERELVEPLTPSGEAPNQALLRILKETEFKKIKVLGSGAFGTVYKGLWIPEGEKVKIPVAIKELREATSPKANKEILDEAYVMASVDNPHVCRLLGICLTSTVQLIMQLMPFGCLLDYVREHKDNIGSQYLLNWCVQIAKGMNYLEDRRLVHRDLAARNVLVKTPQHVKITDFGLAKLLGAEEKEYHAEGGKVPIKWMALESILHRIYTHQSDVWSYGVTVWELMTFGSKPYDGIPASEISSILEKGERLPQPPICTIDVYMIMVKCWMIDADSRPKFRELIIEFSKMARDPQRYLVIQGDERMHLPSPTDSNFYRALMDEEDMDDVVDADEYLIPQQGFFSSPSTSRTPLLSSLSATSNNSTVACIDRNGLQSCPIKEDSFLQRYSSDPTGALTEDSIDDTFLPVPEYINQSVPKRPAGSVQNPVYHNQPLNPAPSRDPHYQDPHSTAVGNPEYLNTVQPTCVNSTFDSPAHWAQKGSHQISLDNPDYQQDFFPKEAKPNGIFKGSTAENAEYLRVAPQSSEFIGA
Chain of Sodium channel protein type 2 subunit alpha (Q99250 whole entry, looked up): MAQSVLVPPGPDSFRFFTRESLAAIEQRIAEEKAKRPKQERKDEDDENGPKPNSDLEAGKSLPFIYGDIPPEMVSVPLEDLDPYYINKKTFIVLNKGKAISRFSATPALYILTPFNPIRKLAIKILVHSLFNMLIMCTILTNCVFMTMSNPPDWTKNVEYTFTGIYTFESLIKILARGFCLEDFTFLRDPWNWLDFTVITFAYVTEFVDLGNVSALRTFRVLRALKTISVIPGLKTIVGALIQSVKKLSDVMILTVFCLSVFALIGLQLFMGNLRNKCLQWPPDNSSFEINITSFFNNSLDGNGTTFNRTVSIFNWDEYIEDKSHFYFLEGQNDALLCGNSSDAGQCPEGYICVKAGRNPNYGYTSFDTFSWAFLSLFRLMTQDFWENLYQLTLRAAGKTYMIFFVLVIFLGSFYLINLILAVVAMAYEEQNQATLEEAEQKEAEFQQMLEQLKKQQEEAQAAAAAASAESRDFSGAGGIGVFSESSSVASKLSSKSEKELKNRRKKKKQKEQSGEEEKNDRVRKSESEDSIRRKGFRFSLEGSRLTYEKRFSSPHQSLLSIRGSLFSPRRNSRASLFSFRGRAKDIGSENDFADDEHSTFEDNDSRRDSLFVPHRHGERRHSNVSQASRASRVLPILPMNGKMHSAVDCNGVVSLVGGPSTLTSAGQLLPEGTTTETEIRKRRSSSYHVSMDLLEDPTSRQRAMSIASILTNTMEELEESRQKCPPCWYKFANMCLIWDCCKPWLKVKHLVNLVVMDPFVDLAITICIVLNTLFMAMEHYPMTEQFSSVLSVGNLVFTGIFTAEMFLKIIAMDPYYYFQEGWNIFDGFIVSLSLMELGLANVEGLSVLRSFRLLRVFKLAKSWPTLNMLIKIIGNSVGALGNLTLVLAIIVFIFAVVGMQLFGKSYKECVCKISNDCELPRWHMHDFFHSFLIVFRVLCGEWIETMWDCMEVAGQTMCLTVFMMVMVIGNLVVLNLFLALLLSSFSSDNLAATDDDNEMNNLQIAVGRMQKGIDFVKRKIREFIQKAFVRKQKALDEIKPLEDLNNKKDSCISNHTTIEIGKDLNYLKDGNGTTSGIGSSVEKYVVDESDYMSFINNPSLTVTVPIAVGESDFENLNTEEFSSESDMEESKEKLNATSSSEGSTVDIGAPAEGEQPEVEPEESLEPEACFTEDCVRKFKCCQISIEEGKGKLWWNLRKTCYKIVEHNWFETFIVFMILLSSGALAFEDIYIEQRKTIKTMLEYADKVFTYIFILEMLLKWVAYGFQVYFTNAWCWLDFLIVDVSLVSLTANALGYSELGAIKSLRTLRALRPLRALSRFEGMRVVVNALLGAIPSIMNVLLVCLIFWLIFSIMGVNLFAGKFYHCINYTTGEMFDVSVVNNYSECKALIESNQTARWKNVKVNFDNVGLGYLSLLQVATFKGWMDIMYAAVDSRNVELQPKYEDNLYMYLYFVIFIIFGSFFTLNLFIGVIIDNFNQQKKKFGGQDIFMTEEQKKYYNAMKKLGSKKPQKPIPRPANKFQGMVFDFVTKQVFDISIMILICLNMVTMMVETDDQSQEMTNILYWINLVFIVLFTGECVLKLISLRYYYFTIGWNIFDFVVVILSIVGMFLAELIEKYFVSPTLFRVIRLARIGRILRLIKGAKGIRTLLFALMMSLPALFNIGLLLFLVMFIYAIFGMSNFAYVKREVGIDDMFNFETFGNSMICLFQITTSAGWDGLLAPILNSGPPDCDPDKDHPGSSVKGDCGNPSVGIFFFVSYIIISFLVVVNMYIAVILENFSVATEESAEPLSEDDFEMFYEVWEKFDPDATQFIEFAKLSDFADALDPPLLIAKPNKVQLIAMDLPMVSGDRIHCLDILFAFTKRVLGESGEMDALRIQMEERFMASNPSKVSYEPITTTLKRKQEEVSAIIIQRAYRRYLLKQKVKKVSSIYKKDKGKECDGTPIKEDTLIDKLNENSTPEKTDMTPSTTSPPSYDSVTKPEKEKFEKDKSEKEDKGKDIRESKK
Chain of BMP-2-inducible protein kinase (Homo sapiens) (Q9NSY1 whole entry, looked up): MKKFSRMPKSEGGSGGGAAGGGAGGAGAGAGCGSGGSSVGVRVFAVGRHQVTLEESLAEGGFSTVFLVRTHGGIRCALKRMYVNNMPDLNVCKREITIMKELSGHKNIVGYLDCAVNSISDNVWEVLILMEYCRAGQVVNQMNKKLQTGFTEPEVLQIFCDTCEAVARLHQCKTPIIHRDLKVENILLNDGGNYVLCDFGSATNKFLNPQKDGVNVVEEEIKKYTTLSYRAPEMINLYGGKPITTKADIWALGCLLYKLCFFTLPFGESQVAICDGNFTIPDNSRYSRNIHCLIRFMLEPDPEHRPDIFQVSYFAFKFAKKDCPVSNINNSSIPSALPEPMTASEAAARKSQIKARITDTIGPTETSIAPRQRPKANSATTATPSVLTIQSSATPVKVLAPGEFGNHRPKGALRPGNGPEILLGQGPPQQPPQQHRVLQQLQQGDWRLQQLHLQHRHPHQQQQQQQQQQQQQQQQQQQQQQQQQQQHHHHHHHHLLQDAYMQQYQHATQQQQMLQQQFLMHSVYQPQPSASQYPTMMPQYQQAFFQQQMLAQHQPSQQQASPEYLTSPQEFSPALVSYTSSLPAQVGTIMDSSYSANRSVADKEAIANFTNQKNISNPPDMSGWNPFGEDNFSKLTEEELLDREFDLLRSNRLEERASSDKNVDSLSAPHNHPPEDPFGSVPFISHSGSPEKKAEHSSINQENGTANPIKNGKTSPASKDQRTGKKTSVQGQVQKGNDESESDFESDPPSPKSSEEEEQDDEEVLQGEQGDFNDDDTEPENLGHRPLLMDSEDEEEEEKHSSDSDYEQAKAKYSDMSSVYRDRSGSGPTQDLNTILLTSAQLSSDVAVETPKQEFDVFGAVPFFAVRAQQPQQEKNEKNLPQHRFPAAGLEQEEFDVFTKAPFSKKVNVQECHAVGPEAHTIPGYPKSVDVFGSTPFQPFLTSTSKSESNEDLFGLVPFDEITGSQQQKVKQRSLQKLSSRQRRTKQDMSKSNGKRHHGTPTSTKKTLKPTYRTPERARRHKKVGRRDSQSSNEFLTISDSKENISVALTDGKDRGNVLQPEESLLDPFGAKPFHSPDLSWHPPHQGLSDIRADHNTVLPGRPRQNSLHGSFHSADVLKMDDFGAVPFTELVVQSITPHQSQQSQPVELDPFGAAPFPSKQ
Chain of Sigma intracellular receptor 2 (Q5BJF2 whole entry): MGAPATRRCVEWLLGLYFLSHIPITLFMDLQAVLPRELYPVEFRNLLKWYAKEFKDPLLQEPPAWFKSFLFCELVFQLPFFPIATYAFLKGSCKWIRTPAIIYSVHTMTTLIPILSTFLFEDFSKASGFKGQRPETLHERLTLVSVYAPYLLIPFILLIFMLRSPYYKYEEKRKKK

COc1cc(C#N)ccc1S(=O)(=O)Nc1ccc2c(c1)cc(C)c(=O)n2C
mean % of control [1]: 62%
pKd [2]: 5.41
mean % of control [3]: 80%
mean % of control [4]: 61%

Cn1cc(-c2ccc3occ(-c4ccccc4-c4ccccc4)c3n2)cn1
pKi [5]: < 5.00
pKi [6]: < 5.00
pKi [7]: < 5.00
pKi [8]: < 5.00

C[C@H]1Oc2cc(cnc2N)-c2c(nn(C)c2C#N)CN(C)C(=O)c2ccc(F)cc21 [LORLATINIB]
pKi [9]: 7.62
pKi [10]: 7.25
pKi [11]: 6.50
pKi [12]: 6.28
pKi [13]: 7.28
pKi [14]: 8.57
pKi [15]: 7.85
pKi (Focal adhesion kinase 1): 7.77
pKi (Activated CDC42 kinase 1): 7.77
pKi [16]: 8.22
pKi [17]: 7.34
pKi [18]: 8.48

CCC(=O)N1CCOc2c(cc(-c3ccc(OC)c(OC)c3)cc2OC[C@H]2CCCN(C)C2)C1
dTm [19]: 2.09 K
pKd (CREB-binding protein [20]): 6.77
dTm [21]: 1.35 K
% of inhibition [22]: 67%
dTm [23]: 1.55 K
% of inhibition [24]: 89%
dTm [25]: 0.58 K
dTm (CREB-binding protein [26]): 7.8 K
pKd [27]: < 4.70
dTm [28]: 8.6 K

CNCCN1CCC(OCc2ccccc2)CC1
pKi [29]: 6.24
dTm [30]: 3.3 K
pKi [31]: 7.27
dTm [32]: 11.3 K
% activity remaining [33]: 78%
inhibition [34]: 31%

O=C1c2ccc(Nc3ccc(F)cc3F)cc2CCc2ccc(OC[C@H](O)CO)cc21 [Skepinone-L]
% of control [35]: 37%
pKi [36]: < 5.00
% of control [37]: 53%
